Results from patent US8012751B2, “Differentiation of pluripotent embryonic stem cells” (Wisconsin Alumni Research Foundation, priority 2005, dated 2011).

Assays:
mouse embryos = test: embryo culture outgrowth experiments; conditions: treated embryos n=34
Excerpt: (§1) Three to nine-week-old female B6C3F1 mice (Charles Rivers) were superovulated with a single 10 IU intraperitoneal injection of Pregnant Mare's Serum Gonadotrophin (Gestyl, Diosynth B.V.—OSS). Forty-eight hours later, ovulation was triggered with a single 10 IU intraperitoneal injection of human Chorionic Gonadotrophin (hCG, Novarel/Ferring) and the female mice were mated with male BDF1 mice (Charles Rivers) of proven fertility. Two-cell stage embryos were flushed from the oviducts of the female mice 38 to 40 hours after the hCG injection using modified-Human Tubal Fluid medium (m-HTF, Irvine Scientific) supplemented with 0.5 mg/mL polyvinyl alcohol (PVA, Sigma). The resulting embryos were washed and cultured in the same medium. Groups of 10-15 embryos were cultured at 37° C. with 5% CO2/95% air in 50 μL drops of m-HTF medium covered with mineral oil (Ovoil, Vitrolife). In the outgrowth experiments, the zona pellucida was digested with pronase and embryos were plated out on gelatin in ES cell derivation medium with 1000 U/mL LIF.
(§2) Human ES cells were plated out as small colonies on matrigel, mouse ES cells on gelatin. DEVD.fmk was added twice a day and half of the ES cell medium was changed daily. As a control, the same volume of DEVD.fmk solvent (DMSO) was added and no significant effect on the number of undifferentiated cells was observed. […]

mouse morulas = test: development of pre-implantation embryos to expanded blastocysts
Excerpt: as §1, §2

[1] = tested on: PARP-1 activity in human ES cells; test: in vitro PARP activity assay; assay type: cell-based; conditions: human ES cells treated with DEVD.fmk; p<0.01
Experimental: (§3) Apoptotic cells were detected using the Annexin-V binding kit (ApoAlert, Clontech) or the TUNEL assay kit (DeadEnd, Promega). PARP activity was determined according to a protocol published by Bakondi and others (Bakondi et al., 2002). In order to detect activated caspase-3 or cleaved p85 PARP-1, cells were fixed in CytoFix (BD), permeablized in CytoPerm, and incubated at 1 μg/ml of anti-active caspase-3 antibody (Cellsignalling) or with 1 μg/ml anti-p85 PARP-1 (Promega) overnight at 4° C. The cells were then washed with CytoPern and incubated with secondary anti-rabbit FITC conjugated antibodies (1:200 dilution) for 60 minutes at room temperature. Mouse embryos were fixed in methanol:DMSO (4:1) (Sigma) overnight at 4° C., re-hydrated in 50% methanol, and then incubated with the primary antibodies (anti-p85 PARP-1 or anti-active caspase-3) in PBS with 2% nonfat instant skim milk and 0.5% Triton-X 100 with gentle shaking overnight at 4° C. Embryos were washed 6 times for 5 minutes at room temperature in PBS with 2% nonfat instant skim milk and 0.5% Triton-X 100 with gentle shaking and incubated in the same way with the secondary fluorescent antibody. Cells and embryos were visualized using a confocal laserscan microscope (Leica) or flow cytometry.
Human ES cells were plated out as small colonies on matrigel, mouse ES cells on gelatin. […]

[2] = tested on: caspase-3-like activity in ES cells; test: in vitro caspase-3 cell lysate assay; assay type: biochemical, human and mouse; conditions: treatment with DEVD.fmk
Excerpt: Activation of caspase-3 is widely considered a marker of the late stages of programmed cell death. In vivo, most of the caspase-3-like enzymatic activity is attributed to caspase-3 and -7. Applicants have therefore assayed caspase-3-like activity in undifferentiated human and mouse ES cell lines using an in vitro cell lysate assay (FIG. 1B, left). […] To further characterize the elevation of caspase-3-like activity in individual ES cells, applicants performed flow cytometry using an antibody specifically recognizing the activated form of caspase-3 (FIG. 1B, right). […] In ES cells, staining for activated caspase-3 was concentrated in the nucleus, with reduced staining in the cytosol (FIG. 1C). In intact embryos, moderate immunostaining of activated caspase-3 was present in all cells of the compacted morula, and in the ICM, but was largely absent in the trophectoderm (FIG. 1D).

[3] = tested on: p85 fragment of PARP-1 in human ES cells; test: Western immunoblotting for cleaved p85 PARP-1 fragment; assay type: cell-based; conditions: human ES cells treated with DEVD.fmk
Experimental: Cell lysates were collected from H1 Human ES cells grown on mouse embryonic fibroblasts, D3 Mouse ES cells, Human Foreskin Fibroblasts (HF), 19 MEFs, and apoptotic MEFs induced with 25 μl/ml of 3% H2O2. Cytosolic and mitochondrial lysates were isolated using the ApoAlert Cell Fractionation Kit (Clontech, Palo Alto, Calif.) and whole-cell lysates were isolated using M-PER Mammalian Protein Extraction Reagent (Pierce, Rockford, Ill.) with 1:1000 dilution of Protease Inhibitor Cocktail (Sigma) and Pefablock SC (final concentration 0.2 μg/ml)(Sigma). Lysates were run on SDS-PAGE gels, transferred to Trans-Blot Transfer Medium (Bio-Rad, Hercules, Calif.) and peroxidase-conjugated secondary antibodies were detected using Supersignal West Pico Chemiluminscent Substrate (Pierce). Cytochrome C was detected with 1:100 dilution of Cytochrome C Antibody (Clontech) and 1:2000 Goat Anti-Rabbit IgG (H+L) (Caltag Laboratories, Burlingame, Calif). COX4 was detected with dilutions of 1:1000 COX4 Antibody (Clontech) and 1:1000 Anti-mouse IgG (g)-Peroxidase (Roche, Basel, Switzerland). PARP was detected with dilutions of 1:400 anti-p85 PARP (rabbit polyclonal IgG) (Promega) and 1:5000 goat Anti-Rabbit IgG (H+L) (Caltag Laboratories).
Human ES cells were plated out as small colonies on matrigel, mouse ES cells on gelatin. DEVD.fmk was added twice a day and half of the ES cell medium was changed daily. […]

human ES cells [4] = test: microarray gene expression analysis of DEVD.fmk treated cells; assay type: cell-based
Excerpt: Since ES cells differentiate relatively uniformly from their undifferentiated state into the spindle-shaped cells, we performed a microarray analysis of the differentiated human cells treated with DEVD.fmk. […] In both zebrafish and Xenopus, dickkopf genes have been associated with the development of mesoderm and endoderm. The identity of the differentiated cell type is most likely a common precursor of mesoderm and endoderm (“mesendoderm”).

human ES cells [5] = test: Annexin-V EGFP binding (programmed cell death); assay type: cell-based; conditions: p=0.0011
Experimental: as §3, with “Embryos were washed 6 times for 5 minutes at room temperature in PBS with 2% nonfat instant skim milk and 0.5% Triton-X 100 with gentle shaking and incubated in the same way with the secondary fluorescent antibody. Cells and embryos were visualized using a confocal laserscan microscope (Leica) or flow cytometry.” left out
Cells were treated with trypsin/EDTA and washed with PBS (both reagents are available through Invitrogen Corp.) Dead cells were excluded from analysis by forward- and side-scatter gating. Eighteen samples were analyzed using a FACScan (Becton Dickinson) flow cytometer and Cellquest software (Becton Dickinson). […] Cells were analyzed by flow cytometry analysis in a fluorescence activated cell sorter. […]

human ES cells [6] = test: Oct4 staining (flow cytometry / immunocytochemistry) of differentiation; assay type: cell-based
Experimental: (§4) H1 human ES cells (WiCell) were cultured as previously described and incorporated by reference herein (Amit et al., 2000). Human ES cells were cultured under feeder-free conditions on culture flasks that were pre-coated with matrigel™ (Becton Dickinson Labware, Bedford, MA), using medium conditioned overnight on dense murine embryonic fibroblasts (MEFs) (Xu et al., 2001a). D3 mouse ES cells (ATCC) were cultured under feeder-free conditions in mouse ES cell medium, consisting of 85% Knock-Out DMEM supplemented with 15% Gibco KNOCKOUT Serum Replacement, 2.5 mM glutamine, 0.1 mM beta-mercaptoethanol (Sigma), and 1000 U/l LIF (Esgro) on gelatin-coated plates. Murine and human fibroblasts and the 293T cell lines were cultivated in DMEM +10% Fetal bovine serum (FBS) and 1% non essential amino acids.
Cells were treated with trypsin/EDTA and washed with PBS (both reagents are available through Invitrogen Corp.) Dead cells were excluded from analysis by forward- and side-scatter gating. Eighteen samples were analyzed using a FACScan (Becton Dickinson) flow cytometer and Cellquest software (Becton Dickinson). A minimum of 50,000 events were acquired for each sample. For Oct4 expression studies cells were stained for Oct4 using monoclonal Oct4 antibody (1 μl/10^6 cells, available through Santa Cruz). Cells were analyzed by flow cytometry analysis in a fluorescence activated cell sorter. […]

human ES cells [7] = test: morphology and time of differentiation of treated ES cells; assay type: cell-based
Experimental: as §4
as §2, with “observed. Recombinant TAT-caspase-3rev was added 4 hours after application of caspase blocker and equal volumes of TAT protein served as controls.” for “observed.”

human ES cells [8] = test: cell proliferation assay (MTS test); assay type: cell-based
Experimental: Human ES cells were grown for the indicated time in 96-wells on Matrigel and a MTS test (CellTiter 96, Promega) was performed according to manufacturers′ instructions.
Human ES cells were plated out as small colonies on matrigel, mouse ES cells on gelatin. DEVD.fmk was added twice a day and half of the ES cell medium was changed daily. As a control, the same volume of DEVD.fmk solvent (DMSO) was added and no significant effect on the number of undifferentiated cells was observed. Recombinant TAT-caspase-3rev was added 4 hours after application of caspase blocker and equal volumes of TAT protein served as controls. Mouse embryos were treated once in the 50 μl microdrop with the given concentration of DEVD.fmk or post-incubation 4 hours later with recombinant TAT-caspase-3rev.

[9] = versus undifferentiated ES cells

Substance: N-benzyloxycarbonyl-Asp-Glu-Val-Asp fluoromethylketone (DEVD; HELM PEPTIDE1{[O=C(OCc1ccccc1)[*:2]].D.E.V.D.[FC[*:1]]}$$$$V2.0; SMILES CC(C)[C@H](NC(=O)[C@H](CCC(=O)O)NC(=O)[C@H](CC(=O)O)NC(=O)OCc1ccccc1)C(=O)N[C@@H](CC(=O)O)C(=O)CF) [DEVD.fmk]
- outgrowth: rind and core structures of extraembryonic endoderm overlying epiblast (mouse embryos): always failed to produce prominent rind and core structures
- development to expanded blastocysts (mouse morulas; 200 μM DEVD.fmk): completely inhibiting development to expanded blastocysts
- development of blastocysts (mouse morulas; added to E2.0, E2.5, E3.0 mouse morulas, dose-dependent): inhibited the development of blastocysts
- PARP-1 activity [1]: upregulated
- caspase-3-like activity [2]: reduced this activity
- p85 PARP-1 fragment in Western blot analysis [3]: disappearance
- up-regulation of DKK4 (human ES cells [4]; microarray, FIG. 7): over 170 fold
- upregulation of BMP4 (human ES cells [4]; [9]): 45 X
- upregulation of DKK4 (human ES cells [4]; [9]): 137 X
- upregulation of GATA-3 (human ES cells [4]; [9]): 9 X
- upregulation of WNT3 (human ES cells [4]; [9]): 3 X
- upregulation of WNT5A (human ES cells [4]; [9]): 5 X
- upregulation of brachyury variant A (human ES cells [4]; [9]): 73 X
- rate of programmed cell death as measured by Annexin-V EGFP staining (human ES cells [5]): dose-dependent reduction
- induction of differentiation as measured by Oct4 staining (human ES cells [6]; human ES cells, p<0.01): dose dependent induction of differentiation
- Oct4 staining by immunocytochemistry (human ES cells [6]; spindle-shaped cells after DEVD.fmk, data not shown): failed to stain for Oct4
- time to differentiate into morphologically uniform mesendoderm cells (human ES cells [7]; human ES cells incubated with caspase inhibitor): 2-3 days
- cell morphology (human ES cells [7]; human ES cells treated with DEVD.fmk): differentiated to a spindle shape cell with a much smaller nuclear-cytoplasmic ratio
- decrease in proliferation of human ES cells (human ES cells [8]; after 3 days): no longer observed
- proliferation of human ES cells (human ES cells [8]; first 48 hours after application): small decrease in proliferation
